Measurements published in patent US20060263781A1, “Regulation of cell surface proteins” (priority 2003, published 2006).

Columns and labels:
tropomyosin isoforms = assay: Immunofluorescence localisation of tropomyosin isoforms in T84 cells after treatment; type: cell-based, human; details: for effect on polarised distribution of αf9d staining: T84 cell monolayers, 2 μM oligonucleotide for 24 hours
Procedure: (§1) Cells were washed in 2% foetal bovine serum (FBS) in phosphate buffered saline (PBS) then fixed with 4% paraformaldehyde. They were permeabilised with 100% methanol, chilled to −80° C., for 20 minutes. Cells were incubated at room temperature with primary and secondary antibodies for 1 hour with washes performed with 2% FBS in PBS 3 times for 10 minutes after each incubation. Coverslips were mounted onto the slides with the anti-fade reagent DABCO.
(§2) Fluorescence was examined with a confocal laser scanning microscope (Leica Microsystems, Wetzler, Germany) using a 63× oil emersion objective. The distribution of fluorophores was measured by scanning at 488 nm for FITC and 568 nm for rhodamine using 8 line averages to eliminate noise. Images were taken in the vertical (xz) and horizontal (xy) plane. Images in the horizontal plane were constructed by overlaying sections taken at 1 μm steps from the apical to the basal region of the cells.
Epithelial cell monolayers were trypsinalised using trypsin/EDTA and centrifuged to form a cell pellet. The cells were then resuspended in medium containing either 1 μM jasplakinolide, 20 μM cytochalasin D or 33 μM nocodazole and seeded into poly-d-lysine and collagen coated glass chamber slides. The developing monolayers were then fixed and stained at 10 minutes after seeding. The effect of nocodazole on microtubules was confirmed by staining with antibodies to β tubulin and comparing with untreated cells. Mature T84 cell monolayers were treated with medium containing 20μM cytochalasin D for 3 hours then fixed and stained. Immunofluorescence analysis was then performed as described above.
The sequence of the antisense and nonsense phosphorothioated oligonucleotides to Tm5a and Tm5b were 5′-[…] (SEQ ID NO:14) and 5′-[…] (SEQ ID NO:15) respectively. These were designed from the exon 1b sequence of the human αTMfast gene (Novy et al., 1993, Cell Motility & the Cytoskeleton 25, 267-281). T84 cell monolayers were grown to confluence on coverslips, in glass chamber slides or 24 well plates. The oligonucleotides were applied at a concentration of 2 μM with Lipofectin Reagent at 10 μg/ml according to the manufacturers instructions. The T84 cell monolayers were then incubated with the oligonucleotide for 24 hours at 37° C. in 5% CO2 after which time they were used for experiments that required oligonucleotide pretreatment.

CFTR [1] = details: cytochalasin D induced disruption of actin filaments; Prat et al., 1995; cited from earlier work
Tm5a and Tm5b [2] = assay: Apical αf9d antibody staining pixel intensity by confocal microscopy in T84 cell monolayers; type: cell-based, human; details: 2 μM oligonucleotide for 24 hours, mean±1 SD
Procedure: as §1, §2
The pixel intensity of Tm antibody staining was measured on images obtained by confocal microscopy. Measurements were made across the apical region and across the central region of monolayers and averaged to obtain the mean pixel intensity for individual monolayers. […]

T84 cell monolayers = assay: MQAE chloride efflux assay; type: cell-based, human; details: for cumulative chloride efflux at 15 minutes, percentage increase in fluorescence normalised to the nonsense group: 2 μM oligonucleotide 24 hours, 10 μM forskolin, mean±1 SD; for cumulative chloride efflux at 15 minutes, percentage increase in fluorescence normalised to the control group: nocodazole 33 μM for 3 hours, mean±SD
Procedure: T84 cell monolayers, cultured on 24 or 96 well plates were incubated in medium containing 10 mM MQAE for 16 hours. The monolayers were then washed 3 times in chloride buffer (2.4 mM Na2HPO4, 0.6 mM NaH2PO4, 1 mM K2SO4, 1 mM MgSO4, 3.4 mM KCl, 124.6 mM NaCl, 1 mM CaCl2, 10 mM glucose and 10 mM HEPES ). T84 cell monolayers were stimulated with forskolin by incubating with chloride buffer containing 10 μM forskolin for 10 minutes, after which the chloride buffer was removed and replaced with chloride free buffer (2.4 mM Na2HPO4, 0.6 mM NaH2PO4, 1 mM K2SO4, 1 mM MgSO4, 3.4 mM KNO3, 1 mM Ca(NO3)2, 124.6 mM NaNO3, 10 mM glucose and 10 mM HEPES) containing 10 μM forskolin. Repetitive fluorescence measurements were initiated immediately using a fluorescence plate reader (excitation, λ-360 nm; emission, λ-460 nm). Measurements were performed every 30 to 60 seconds for 15 minutes.
Chloride efflux was measured as the percentage increase in fluorescence between baseline and the specified time point. The percentage increase in fluorescence was normalised within experiments to the mean percentage increase in fluorescence in the control group in that experiment. To determine the effects of treatments, the normalised percentage increase in fluorescence was compared between groups. Two group comparisons were made using the Student t test.
(§3) Cultured T84 colon cancer cell monolayers grown in collagen coated 24 well plates or on plastic coverslips were used as a model of the gastrointestinal epithelium. Incubation of monolayers inoculated with EPEC ([…]) for 6-9 hours was used to model EPEC infection and was compared with HB101, a non-pathogenic control. Antisense oligonucleotides were used to reduce tropomyosin 5a and 5b expression. An immuno-colourimetric assay was used to assess CFTR surface expression and intra-cellular MQAE fluorescence was used to assess chloride efflux.

CFTR [3] = assay: Enzyme linked surface CFTR assay in T84 cell monolayers; type: cell-based, human; details: for CFTR surface expression, absorbance at 655 nm normalised to the nonsense treated group: 2 μM oligonucleotide for 24 hours, mean±1 SD; for CFTR surface expression, absorbance at 655 nm normalised to the control group: forskolin stimulated T84 cell monolayers, 33 μM nocodazole for 3 hours, mean±SD
Procedure: T84 cell monolayers cultured on collagen coated glass coverslips were incubated in either chloride buffer with 10 μM forskolin or chloride buffer only for 30 minutes at 37° C. in 5% CO2 then fixed with 4% paraformaldehyde for 20 minutes at 4° C. The T84 cell monolayers were incubated for 1 hour firstly with CFTR (MA1-935) antibody (Walker et al., 1995) diluted 1:500 followed by HRP anti-mouse IgG diluted 1:1000. T84 cell monolayers were blocked prior to each incubation for 10 minutes in PBS containing 10% FBS and washed following each incubation 4 times in PBS. The coverslips were then placed into a clean 24 well plate and incubated for 30 minutes with 500 μl of 3′3′5′5′ Tetra methyl benzidine. The supernatant from each well was transferred to a cuvette and absorbance determined at 655 nm in a Beckman DU650 spectrophotometer. Absorbance was also determined at 655 nm for primary antibody negative controls and that amount was subtracted from the absorbance in primary antibody positive monolayers to determine their assay result.
The CFTR surface expression is reported as the absorbance measured at 655 nm, normalised to the mean absorbance for the control group within individual experiments. To determine the effects of treatment, normalised absorbance at 655 nm was compared between groups. Two group comparisons were made using the Student t test.
as §3

Tm5a and Tm5b [4] = assay: Western blot (immunoblot) of tropomyosin isoforms in T84 cells; type: cell-based, human; details: 24 hours exposure, 2 μM, Western blot band density
Procedure: The sequence of the antisense and nonsense phosphorothioated oligonucleotides to Tm5a and Tm5b were 5′-CAC CGC CUC CAG CGA GCT (SEQ ID NO:14) and 5′-GCT CCA GCC ACG CCG ACT (SEQ ID NO:15) respectively. These were designed from the exon 1b sequence of the human αTMfast gene (Novy et al., 1993, Cell Motility & the Cytoskeleton 25, 267-281). T84 cell monolayers were grown to confluence on coverslips, in glass chamber slides or 24 well plates. The oligonucleotides were applied at a concentration of 2 μM with Lipofectin Reagent at 10 μg/ml according to the manufacturers instructions. The T84 cell monolayers were then incubated with the oligonucleotide for 24 hours at 37° C. in 5% CO2 after which time they were used for experiments that required oligonucleotide pretreatment.
Proteins were extracted from T84 cells using the method of Wessel and Flugge (Wessel and Flugge, 1984). Western blot was performed as described (Percival et al., 2000, Cell Motility & the Cytoskeleton 47, 189-208). […] Bound antibody was detected using HRP-conjugated goat anti-rabbit or goat anti-mouse IgG. The bands were detected using Western Lightening™ chemiluminescence reagent and exposure to x-ray film.
Protein expression was measured as the density of protein bands on Western blot autoradiographs using the computer program Molecular Analyst (Version 1.5, Bio Rad Laboratories, Calif., U.S.A.). […]

microtubules = assay: β tubulin staining to confirm effect on microtubules; type: cell-based, human; details: T84 cells, 33 μM nocodazole
Procedure: Epithelial cell monolayers were trypsinalised using trypsin/EDTA and centrifuged to form a cell pellet. The cells were then resuspended in medium containing either 1 μM jasplakinolide, 20 μM cytochalasin D or 33 μM nocodazole and seeded into poly-d-lysine and collagen coated glass chamber slides. The developing monolayers were then fixed and stained at 10 minutes after seeding. […] Mature T84 cell monolayers were treated with medium containing 20μM cytochalasin D for 3 hours then fixed and stained. Immunofluorescence analysis was then performed as described above.

C=C1[C@@H](C)[C@H]2[C@H](Cc3ccccc3)NC(=O)[C@]23[C@H](OC(C)=O)/C=C/[C@@](C)(O)C(=O)[C@@H](C)C/C=C/[C@H]3[C@@H]1O [cytochalasin D]
effect on polarised distribution of αf9d staining in established monolayers (tropomyosin isoforms; mature T84 cell monolayers, 20 μM cytochalasin D for 3 hours): eliminated the polarised distribution of αf9d staining
effect on chloride currents through CFTR (CFTR [1]): increase chloride currents through CFTR

5′-GCT CCA GCC ACG CCG ACT (GCTCCAGCCACGCCGACT; all phosphorothioate, sugars by position and methylation of C not given here) [Nonsense, Scrambled nonsense control oligonucleotide]
effect on polarised distribution of αf9d staining (tropomyosin isoforms): essentially no effect on the distribution of staining
apical αf9d antibody staining pixel intensity (Tm5a and Tm5b [2]): 150.86±48.28
cumulative chloride efflux at 15 minutes, percentage increase in fluorescence normalised to the nonsense group (T84 cell monolayers): 1±0.36
CFTR surface expression, absorbance at 655 nm normalised to the nonsense treated group (CFTR [3]; T84 cell monolayers): 1±0.42

5′-CAC CGC CUC CAG CGA GCT (antisense CACCGCCUCCAGCGAGCT; all phosphorothioate, sugars by position and methylation of C not given here) [Antisense phosphorothioated oligonucleotide to Tm5a and Tm5b, targeted to exon 1b of the TPM1 gene]
effect on polarised distribution of αf9d staining (tropomyosin isoforms): eliminated the polarised distribution of αf9d staining
mean reduction in Tm5a and Tm5b levels relative to nonsense treatment (Tm5a and Tm5b [4]): 54±13%
apical αf9d antibody staining pixel intensity (Tm5a and Tm5b [2]): 53.62±31.62
cumulative chloride efflux at 15 minutes, percentage increase in fluorescence normalised to the nonsense group (T84 cell monolayers): 1.47±0.41
increase in CFTR surface expression, antisense compared with nonsense controls (CFTR [3]; T84 cell monolayers, 2 μM for 24 hours): 50%
CFTR surface expression, absorbance at 655 nm normalised to the nonsense treated group (CFTR [3]; T84 cell monolayers): 1.49±0.78

COC(=O)Nc1nc2ccc(C(=O)c3cccs3)cc2[nH]1 [Nocodazole, nocodazole]
distribution of 311 antibody staining 10 minutes post-seeding (tropomyosin isoforms; T84 cells pretreated in suspension before seeding (jasplakinolide 1 μM, nocodazole 33 μM)): enrichment at the apical surface
microtubular structure by β tubulin staining (microtubules): disrupted normal microtubular structure
cumulative chloride efflux at 15 minutes, percentage increase in fluorescence normalised to the control group (T84 cell monolayers): 1.01±0.43
cumulative chloride efflux at 15 minutes, percentage increase in fluorescence normalised to the control group (T84 cell monolayers; listed as nocodazole): failed to elicit any significant change
CFTR surface expression, absorbance at 655 nm normalised to the control group (CFTR [3]): 0.92±0.25
CFTR surface expression, absorbance at 655 nm normalised to the control group (CFTR [3]; listed as nocodazole): failed to elicit any significant change
